Assay results published in patent US8178506B2, “Oligomeric compounds and compositions for use in modulation of small non-coding RNAs” (Regulus Therapeutics Inc., priority 2003, dated 2012).
Entries after “also recorded” stand apart in the source; their conditions may differ. In the oligonucleotide strings, read from the 5' end, every base follows the letter of its sugar. An asterisk marks phosphorothioate; unmarked linkages are phosphodiester. Other units and linkages are bracketed, terminal groups are in braces. A string of capitals states the bases alone. e = 2'-O-(2-methoxyethyl) (MOE); [5mC] = 5-methylcytosine; d = 2'-deoxy (DNA)

Tested on: mir-21 pri-miRNA
Assay: mir-21 pri-miRNA expression in HeLa cells (real-time RT-PCR)
Type: cell-based, human
Conditions: for mir-21 pri-miRNA expression % UTC: HeLa cells, real-time RT-PCR; for mir-21 pri-miRNA expression % UTC / levels of the mir-21 pri-miRNA molecule: 100 nM; for levels of the mir-21 pri-miRNA molecule: HeLa
Description: In one embodiment, the expression of mir-21 (noted to be expressed at high levels in HeLa cells) was assessed in cells treated with oligomeric compounds. Using the transfection methods previously described, HeLa cells were treated with 100 nM of the uniform 2′-MOE oligomeric compound ISIS Number 327917 (SEQ ID NO: 335) targeting the mir-21 mature miRNA. Total RNA was isolated by lysing cells in 1 mL TRIZOL™ (Invitrogen) using the manufacturer's recommended protocols. […] Real-time RT-PCR analysis was also performed on HeLa cells treated with ISIS 327917 using a primer/probe set specific for the mir-21 pri-miRNA molecule [forward primer=ISIS 339332 ([…]; herein incorporated as SEQ ID NO.: 911), reverse primer-ISIS 339333 (TCGACTGGTGTTGCCATGA; herein incorporated as SEQ ID NO.: 912), and probe=ISIS 339334 ([…]; herein incorporated as SEQ ID NO.: 913)]. Total RNA was quantified using RiboGreen™ RNA quantification reagent (Molecular Probes, Inc. Eugene, Oreg.), expression levels observed for the target were normalized to 5.8S rRNA, and values were expressed relative to an untreated control (UTC).
Using the real-time RT-PCR methods, the expression levels of the mir-21 pri-miRNA were compared in HeLa cells treated with this nested series of uniform 2′-MOE oligomeric compounds, targeting and spanning the entire length of the mir-21 pri-miRNA. ISIS Number 358768 (SEQ ID NO: 918) targets a region flanking the predicted 5′ Drosha cleavage site in the mir-21 pri-miRNA. ISIS Number 358777 (SEQ ID NO: 927) targets a region spanning the 3′ Drosha cleavage site in the mir-21 pri-miRNA. ISIS 358779 (SEQ ID NO: 929) targets a region flanking the predicted 3′ Drosha cleavage site in the mir-21 pri-miRNA. Additionally, oligomeric compounds ISIS 327917 (SEQ ID NO: 335), a uniform 2′-MOE compound targeting the mature mir-21 miRNA, and ISIS 345382 ([…]; SEQ ID NO: 335), a 5-10-7 phosphorothioate 2′-MOE gapmer targeting mir-21, were tested for comparison. Oligomeric compound ISIS 327863 ([…]; herein incorporated as SEQ ID NO: 936), a phosphorothioate 5-10-52′-MOE gapmer, was used as scrambled control. […] Total RNA was isolated by lysing cells in 1 mL TRIZOL™ (Invitrogen) using the manufacturer's recommended protocols. real-time RT-PCR analysis was performed using the primer/probe set specific for the mir-21 pri-miRNA molecule [forward primer=ISIS 339332 (SEQ ID NO.: 911), reverse primer-ISIS 339333 (SEQ ID NO.: 912), and probe=ISIS 339334 (SEQ ID NO.: 913)]. Total RNA was quantified using RiboGreen™ RNA quantification reagent (Molecular Probes, Inc. Eugene, Oreg.), expression levels observed for each target were normalized to 5.8S rRNA, and values were expressed relative to the untreated control (UTC). Effects on expression of the mir-21 pri-miRNA molecule resulting from treatment of HeLa cells with these uniform 2′-MOE oligomeric compounds is expressed as a percentage of RNA levels in untreated control cells.

Substance	mir-21 pri-miRNA expression % UTC	levels of the mir-21 pri-miRNA molecule	further results
327863 (antisense ACGCTAGCCTAATAGCGAGG; sugars from the 5' end e5 d10 e5, all phosphorothioate, methylation of C not given here) [compound 327863]	107 % UTC		
358765 (eA*e[5mC]*eA*eA*eG*e[5mC]*eA*eG*eA*e[5mC]*eA*eG*eT*e[5mC]*eA*eG*eG*e[5mC]*eA*eG; antisense) [compound 358765]	133 % UTC		
358766 (eG*eG*eT*eA*eG*eG*e[5mC]*eA*eA*eA*eA*e[5mC]*eA*eA*eG*e[5mC]*eA*eG*eA*e[5mC]; antisense) [compound 358766]	142 % UTC		
358767 (eG*eG*eA*eG*eA*eT*eG*eT*e[5mC]*eA*e[5mC]*eG*eA*eT*eG*eG*eT*eA*eG*eG; antisense) [compound 358767]	248 % UTC		
358769 (eG*eA*eT*eA*eA*eG*e[5mC]*eT*eA*e[5mC]*e[5mC]*e[5mC]*eG*eA*e[5mC]*eA*eA*eG*eG*eT; antisense) [compound 358769]	265 % UTC		
358770 (eA*eG*eT*e[5mC]*eT*eG*eA*eT*eA*eA*eG*e[5mC]*eT*eA*e[5mC]*e[5mC]*e[5mC]*eG*eA*e[5mC]; antisense) [compound 358770]	250 % UTC		
358771 (e[5mC]*eA*eA*e[5mC]*eA*eG*eT*e[5mC]*eA*eA*e[5mC]*eA*eT*e[5mC]*eA*eG*eT*e[5mC]*eT*eG; antisense) [compound 358771]	181 % UTC		
358772 (eG*eA*eG*eA*eT*eT*e[5mC]*eA*eA*e[5mC]*eA*eG*eT*e[5mC]*eA*eA*e[5mC]*eA*eT*e[5mC]; antisense) [compound 358772]	245 % UTC		
358773 (e[5mC]*eT*eG*eG*eT*eG*eT*eT*eG*e[5mC]*e[5mC]*eA*eT*eG*eA*eG*eA*eT*eT*e[5mC]; antisense) [compound 358773]	148 % UTC		
358774 (antisense e[5mC]*eA*eT*e[5mC]*eG*eA*e[5mC]*eT*eG*eG*eT*eG*eT*eT*eG*e[5mC]*e[5mC]*eA*eT*eG) [compound 358774]	104 % UTC		
358775 (antisense eA*e[5mC]*eA*eG*e[5mC]*e[5mC]*e[5mC]*eA*eT*e[5mC]*eG*eA*e[5mC]*eT*eG*eG*eT*eG*eT*eT) [compound 358775]	222 % UTC		
358776 (antisense eT*eG*eT*e[5mC]*eA*eG*eA*e[5mC]*eA*eG*e[5mC]*e[5mC]*e[5mC]*eA*eT*e[5mC]*eG*eA*e[5mC]*eT) [compound 358776]	367 % UTC		
358777 (antisense e[5mC]*e[5mC]*eA*eA*eA*eA*eT*eG*eT*e[5mC]*eA*eG*eA*e[5mC]*eA*eG*e[5mC]*e[5mC]*e[5mC]*eA) [compound 358777]	536 % UTC		
358778 (antisense eG*eA*eT*eA*e[5mC]*e[5mC]*eA*eA*eA*eA*eT*eG*eT*e[5mC]*eA*eG*eA*e[5mC]*eA*eG) [compound 358778]	503 % UTC		
358779 (antisense eG*eG*eT*e[5mC]*eA*eG*eA*eT*eG*eA*eA*eA*eG*eA*eT*eA*e[5mC]*e[5mC]*eA*eA) [compound 358779]	646 % UTC		
358780 (antisense eA*eA*e[5mC]*eA*eT*eT*eG*eG*eA*eT*eA*eT*eG*eG*eA*eT*eG*eG*eT*e[5mC]) [compound 358780]	269 % UTC		
358781 (antisense eT*eA*eA*eT*eG*eT*eT*eT*eA*eA*eA*eT*eG*eA*eG*eA*eA*e[5mC]*eA*eT) [compound 358781]	122 % UTC		
358782 (antisense eA*eA*e[5mC]*eA*eA*eT*eG*eA*eT*eG*e[5mC]*eT*eG*eG*eG*eT*eA*eA*eT*eG) [compound 358782]	155 % UTC		
358783 (antisense eG*eA*eG*eT*eT*eT*e[5mC]*eT*eG*eA*eT*eT*eA*eT*eA*eA*eA*e[5mC]*eA*eA) [compound 358783]	133 % UTC		
358784 (antisense e[5mC]*eG*eA*e[5mC]*eA*eA*eG*eG*eT*eG*eG*eT*eA*e[5mC]*eA*eG*e[5mC]*e[5mC]*eA*eT) [compound 358784]	358 % UTC		
358785 (antisense eG*eA*eA*eA*eG*eA*eT*eA*e[5mC]*e[5mC]*eA*eA*eA*eA*eT*eG*eT*e[5mC]*eA*eG) [compound 358785]	257 % UTC		
ISIS 358767: uniform 2′-MOE PS; targets mir-21 pri-miRNA (antisense eG*eG*eA*eG*eA*eT*eG*eT*e[5mC]*eA*e[5mC]*eG*eA*eT*eG*eG*eT*eA*eG*eG)		stimulate an increase in levels of the mir-21 pri-miRNA molecule	
ISIS 358768: uniform 2′-MOE PS; SEQ ID NO: 918; region flanking 5′ Drosha cleavage site of mir-21 pri-miRNA (antisense eA*eG*eG*eT*eG*eG*eT*eA*e[5mC]*eA*eG*e[5mC]*e[5mC]*eA*eT*eG*eG*eA*eG*eA) [uniform 2′-MOE PS; region flanking 5′ Drosha cleavage site of mir-21 pri-miRNA]		stimulate an increase in levels of the mir-21 pri-miRNA molecule; also recorded: stimulate the greatest increases in expression of the mir-21 pri-miRNA	mir-21 pri-miRNA levels, dose response (HeLa, 25, 50, 100 and 200 nM): dose-responsive induction of mir-21 pri-miRNA levels
ISIS 358769: uniform 2′-MOE PS; targets mir-21 pri-miRNA (antisense eG*eA*eT*eA*eA*eG*e[5mC]*eT*eA*e[5mC]*e[5mC]*e[5mC]*eG*eA*e[5mC]*eA*eA*eG*eG*eT)		stimulate an increase in levels of the mir-21 pri-miRNA molecule	
ISIS 358770: uniform 2′-MOE PS; targets mir-21 pri-miRNA (antisense eA*eG*eT*e[5mC]*eT*eG*eA*eT*eA*eA*eG*e[5mC]*eT*eA*e[5mC]*e[5mC]*e[5mC]*eG*eA*e[5mC])		stimulate an increase in levels of the mir-21 pri-miRNA molecule	
ISIS 358772: uniform 2′-MOE PS; targets mir-21 pri-miRNA (antisense eG*eA*eG*eA*eT*eT*e[5mC]*eA*eA*e[5mC]*eA*eG*eT*e[5mC]*eA*eA*e[5mC]*eA*eT*e[5mC])		stimulate an increase in levels of the mir-21 pri-miRNA molecule	
ISIS 358775: uniform 2′-MOE PS; targets mir-21 pri-miRNA (antisense eA*e[5mC]*eA*eG*e[5mC]*e[5mC]*e[5mC]*eA*eT*e[5mC]*eG*eA*e[5mC]*eT*eG*eG*eT*eG*eT*eT)		stimulate an increase in levels of the mir-21 pri-miRNA molecule	
ISIS 358776: uniform 2′-MOE PS; targets mir-21 pri-miRNA (antisense eT*eG*eT*e[5mC]*eA*eG*eA*e[5mC]*eA*eG*e[5mC]*e[5mC]*e[5mC]*eA*eT*e[5mC]*eG*eA*e[5mC]*eT)		stimulate an increase in levels of the mir-21 pri-miRNA molecule	
ISIS 358777: uniform 2′-MOE PS; SEQ ID NO: 927; region spanning 3′ Drosha cleavage site of mir-21 pri-miRNA (antisense e[5mC]*e[5mC]*eA*eA*eA*eA*eT*eG*eT*e[5mC]*eA*eG*eA*e[5mC]*eA*eG*e[5mC]*e[5mC]*e[5mC]*eA) [uniform 2′-MOE PS; region spanning 3′ Drosha cleavage site of mir-21 pri-miRNA]		stimulate an increase in levels of the mir-21 pri-miRNA molecule; also recorded: stimulate the greatest increases in expression of the mir-21 pri-miRNA	
ISIS 358778: uniform 2′-MOE PS; targets mir-21 pri-miRNA (antisense eG*eA*eT*eA*e[5mC]*e[5mC]*eA*eA*eA*eA*eT*eG*eT*e[5mC]*eA*eG*eA*e[5mC]*eA*eG)		stimulate an increase in levels of the mir-21 pri-miRNA molecule	
